For data set [1], the target named is T1, H44R/H48Q yeast ADH (Saccharomyces cerevisiae, UniProt P00330, H45R/H49Q). Format: biochemical.
Data set [2] concerns the target H44R/H48Q yeast alcohol dehydrogenase (Saccharomyces cerevisiae, UniProt P00330, H45R/H49Q).
For data set [3], the system named is wild-type yeast alcohol dehydrogenase. The following applies: cited from earlier work.
In data set [4] the target is T2, wild-type yeast ADH (Saccharomyces cerevisiae, UniProt P00330).
T2 sequence (P00330 1-348): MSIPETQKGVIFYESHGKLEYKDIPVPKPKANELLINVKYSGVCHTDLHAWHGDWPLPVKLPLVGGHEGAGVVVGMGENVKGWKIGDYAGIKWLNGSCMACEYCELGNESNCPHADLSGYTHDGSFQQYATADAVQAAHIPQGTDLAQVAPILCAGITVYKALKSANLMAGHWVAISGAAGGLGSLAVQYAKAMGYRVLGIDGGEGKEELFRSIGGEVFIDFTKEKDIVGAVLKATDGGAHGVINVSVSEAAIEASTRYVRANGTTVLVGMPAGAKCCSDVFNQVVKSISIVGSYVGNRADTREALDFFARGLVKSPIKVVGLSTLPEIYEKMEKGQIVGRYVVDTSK
The note with it: cited from earlier work.

Data set [5] deals with H44R yeast alcohol dehydrogenase. The note with it: pH 7.3, 30 °C, cited from earlier work.
Data set [6] relates to H48Q yeast alcohol dehydrogenase. The note with it: pH 7.3, 30 °C, cited from earlier work.
Data set [7] has as its target T1, H44R/H48Q yeast ADH. Format: biochemical. The note with it: for VD1, isotope effect for oxidation of ethanol: 550 mM ethanol, 2 mM NAD^+, single concentration, duplicate.
In data set [8] the target is T2, wild-type yeast ADH. The note with it: ethanol or ethanol-d5 15–200 mM, 10 mM NAD^+, 30 °C, ref 6 and 9, cited from earlier work.
For data set [9], the target named is T3, H44R yeast ADH (Saccharomyces cerevisiae, UniProt P00330, H45R). The note with it: ethanol or ethanol-d5 15–200 mM, 10 mM NAD^+, 30 °C, ref 6 and 9, cited from earlier work.
T3 sequence (P00330 2-348 H45R): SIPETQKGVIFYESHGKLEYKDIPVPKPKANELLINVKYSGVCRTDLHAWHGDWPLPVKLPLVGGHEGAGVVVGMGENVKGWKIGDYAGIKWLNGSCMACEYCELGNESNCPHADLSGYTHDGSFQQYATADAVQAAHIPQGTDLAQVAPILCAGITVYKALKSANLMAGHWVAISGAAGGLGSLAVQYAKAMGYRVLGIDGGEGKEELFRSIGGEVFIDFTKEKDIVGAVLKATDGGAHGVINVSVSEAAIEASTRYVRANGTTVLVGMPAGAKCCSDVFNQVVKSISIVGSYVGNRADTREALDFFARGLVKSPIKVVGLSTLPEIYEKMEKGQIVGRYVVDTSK
Data set [10] addresses T4, H48Q yeast ADH (Saccharomyces cerevisiae, UniProt P00330, H49Q). The following applies: ethanol or ethanol-d5 15–200 mM, 10 mM NAD^+, 30 °C, ref 6 and 9, cited from earlier work.
Data set [11] has as its target T2, wild-type yeast ADH. In words: Inactivation by diethyl pyrocarbonate. Format: biochemical. The note with it: pH 8.0, 30 °C.
For data set [12], the target named is T3, H44R yeast ADH. Nature of the data set: Inactivation by diethyl pyrocarbonate. Format: biochemical. The following applies: pH 8.0, 30 °C.
Data set [13] has as its target T4, H48Q yeast ADH. Nature of the data set: Inactivation by diethyl pyrocarbonate. Format: biochemical. The note with it: pH 8.0, 30 °C.
Data set [14] deals with T1, H44R/H48Q yeast ADH. Nature of the data set: Inactivation by diethyl pyrocarbonate. Format: biochemical. The following applies: pH 8.0, 30 °C.
Data set [15] addresses T2, wild-type yeast ADH. The following applies: cited from earlier work. The source holds these as a separate data set.
Where [16] appears, read: pH 7.3, 30 °C, 83 mM potassium phosphate, 40 mM KCl.
[17] abbreviates: 83 mM potassium phosphate, 40 mM KCl.
Setting [18] is: read-out: Kia, inhibition (dissociation) constant for NAD^+, 83 mM potassium phosphate, 40 mM KCl.
The mark [19] stands for this setting: read-out: Kiq, inhibition (dissociation) constant for NADH, pH 7.3, 30 °C, 83 mM potassium phosphate, 40 mM KCl.
The mark [20] stands for this setting: read-out: Kiq, inhibition (dissociation) constant for NADH, 83 mM potassium phosphate, 40 mM KCl.
The mark [21] stands for this setting: 90 μM diethyl pyrocarbonate, 33 mM sodium phosphate buffer.
Where [22] appears, read: after 90 μM diethyl pyrocarbonate.

The structures appear in SMILES notation. Like-named read-outs stand apart in the source and are kept apart here.

Here are results for 6 compounds from PMC11090211 (Chemico-biological interactions, 2024).

Chain of H44R/H48Q yeast alcohol dehydrogenase (P00330 2-348 H45R/H49Q): as the sequence (P00330 2-348 H45R) above, with H48Q counted along it
T1 sequence (P00330 2-348 H45R/H49Q): as the sequence (P00330 2-348 H45R) above, with H48Q counted along it
T4 sequence (P00330 2-348 H49Q): as the sequence (P00330 2-348 H45R) above, with R44H, H48Q counted along it

Take `N=C([O-])c1ccc[n+]([C@@H]2O[C@H](COP(=O)(O)OP(=O)([O-])OC[C@H]3O[C@@H](n4cnc5c(N)ncnc54)[C@H](O)[C@@H]3O)[C@@H](O)[C@H]2O)c1.[Li+]` [NAD^+]: the results for the “pK of pH dependence of Kia” value in data set [1] and in data set [4] were “~pH independent” and 8.1 ± 0.2, respectively. Moreover, the “pK of pH dependence of V1/EtKa” value in data set [1] is given as 8.03 ± 0.04. The Ki in data set [1] (read-out: Kia, at pH 7) was 160 µM; in data set [3] (read-out: Kia, inhibition (dissociation) constant for NAD^+, pH 7.3, 30 °C, 83 mM potassium phosphate, 40 mM KCl), 950 µM; in data set [5] (setting [18]) it was 260 µM; in [6] (setting [18]), 410 µM. Also, the “Ka, Michaelis constant for NAD^+” value was 320 µM in data set [2] (setting [16]), 160 µM in data set [3] (setting [16]), 150 µM in [5] (setting [17]) and 100 µM in data set [6] (setting [17]). In addition, the “Kia, limiting value ka” value in [4] (EH form) is listed as 0.54 ± 0.06 mM. In addition, the V1/EtKa in [4] (at pH 7) is reported as 1570 (at pH 7) mM^−1s^−1. Moreover, in data set [4], the “slope of pH dependence of V1/EtKa” value is listed as −0.11 ± 0.02.

As for `NC(=O)C1=CN([C@@H]2O[C@H](COP(=O)([O-])OP(=O)([O-])OC[C@H]3O[C@@H](n4cnc5c(N)ncnc54)[C@H](O)[C@@H]3O)[C@@H](O)[C@H]2O)C=CC1.[Na+].[Na+]` [NADH], the “pK of pH dependence of Kiq” value in [1] was 8.9 ± 0.2; in [4], 7.4 ± 0.2. Besides, the “pK of pH dependence of V2/Etkq” value is reported as 8.8 ± 0.1 in data set [1] and 7.8 ± 0.2 in data set [4]. For the same compound, the “Kiq, limiting value ka” value in data set [1] (EH form) is “ka 7.9 ± 1.4 μM”; in data set [4] (EH form), 15 ± 2 µM. The “V2/Etkq, limiting value ka” value in [1] (EH form) was “ka 16 ± 2 μM^−1s^−1”. For the same compound, the “rate constant for dissociation, calculated from V2Kiq/EtKq” value in [1] (essentially pH independent) is 120 s⁻¹. In addition, the “Kq, Michaelis constant for NADH” value was 42 pM in data set [2] (setting [16]), 94 pM in data set [3] (setting [16]), 10 pM in data set [5] (setting [17]) and 110 pM in [6] (setting [17]). Further, the Ki in data set [2] (setting [19]) was 3.5 µM; in data set [3] (setting [19]), 31 µM; in data set [5] (setting [20]) it was 16 µM; in data set [6] (setting [20]), 13 µM. Further, in data set [4], the “V2/Etkq, limiting value” was 32 ± 3 µM⁻¹ s⁻¹.

Turning to `CC=O` [acetaldehyde], in data set [7] (1 mM acetaldehyde with 0.15 mM NADH, over the pH range), the “isotope effect (for VD2/Kp), acetaldehyde reduction” value is reported as ~ 2. Also, the “pK of pH dependence of V2/Et” value in data set [1] is 9.6 ± 0.1; in data set [4] it was 7.8 ± 0.2. Besides, the “V2/Et, limiting value ka” value in [1] (EH form) is “ka 850 ± 60 s^−1”; in data set [4] (EH form), 3600 ± 300 s⁻¹. Moreover, the “V1/EtKp, limiting value ka” value is recorded as “ka 32 ± 3 mM^−1s^−1” in data set [1] (EH form, NADH and acetaldehyde); “ka 3200 ± 200 mM^−1s^−1” in [4] (EH form, NADH and acetaldehyde). The “pK of pH dependence of V1/EtKp” value in data set [1] (NADH and acetaldehyde) is on record as 9.5 ± 0.1; in [4] (NADH and acetaldehyde), 7.7 ± 0.1. Moreover, the “Kp, Michaelis constant for acetaldehyde” value in [2] (setting [16]) is 22 mM; in [3] (setting [16]), 0.74 mM; in data set [5] (setting [17]), 4.7 mM; in [6] (setting [17]), 12 mM. Also, the “V2/Et, turnover number for acetaldehyde reduction” value in data set [2] (setting [16]) was 1040 s⁻¹; in data set [3] (setting [16]), 1800 s⁻¹; in [5] (setting [17]), 460 s⁻¹; in data set [6] (setting [17]), 3000 s⁻¹. Moreover, the “V2/Etkp, catalytic efficiency for acetaldehyde reduction” value in data set [2] (setting [16]) is 47 mM⁻¹ s⁻¹; in data set [5] (setting [17]), 98 mM⁻¹ s⁻¹; in data set [6] (setting [17]), 250 mM⁻¹ s⁻¹. The V2/EtkpKiq in data set [3] (NADH and acetaldehyde, pH 7.3, 30 °C) was 77000 mM^−2 s^−1; in data set [5] (NADH and acetaldehyde), 6100 mM^−2 s^−1; in data set [6] (NADH and acetaldehyde), 19000 mM^−2 s^−1. Besides, the Ki in data set [3] (read-out: Kip, intercept inhibition constant, product inhibition studies, pH 7.3, 30 °C) is 1500 µM.

Consider `CCO` [ethanol], for which the “VD1, isotope effect for oxidation of ethanol” value (from here on “VD1, isotope effect”) in data set [7] (pH 6 (MES)) is 2.8; in data set [7] (pH 7 (MOPS)), 4.2; in data set [7] (pH 8 (TAPS)), 2.9; in data set [7] (pH 9 (TAPS)) it was 2.3; in [7] (pH 10 (CAPSO)), 1.8; in data set [8] (pH 6) it was 2.0. The “VD1, isotope effect” value was 1.8 in [8] (pH 7); 1.8 in data set [8] (pH 8); 1.4 in data set [8] (pH 9); 1.3 in data set [8] (pH 10); 3.5 in data set [9] (pH 6); 1.7 in data set [9] (pH 7). The “VD1, isotope effect” value in data set [9] (pH 8) was 1.2; in data set [9] (pH 9) it was 1.1; in [9] (pH 10) it was 1.1; in data set [10] (pH 6), 3.9; in data set [10] (pH 7), 4.2; in data set [10] (pH 8), 3.3. The “VD1, isotope effect” value was 2.9 in data set [10] (pH 9) and 2.3 in data set [10] (pH 10). In addition, the “pK of pH dependence of V1/EtKb” value in data set [1] is listed as 8.5 ± 0.1; in data set [4] it was 7.8 ± 0.2. Besides, the “pK1 of pH dependence of V1/Et” value in data set [1] (deprotonation of H2E, NAD^+ and ethanol) came out at 7.0 ± 0.2. Moreover, in [1] (deprotonation of HE, NAD^+ and ethanol), the “pK2 of pH dependence of V1/Et” value is 9.2 ± 0.3. The “V1/Et, turnover number for ethanol oxidation” value in [2] (setting [16]) is 24 s⁻¹; in data set [3] (setting [16]) it was 360 s⁻¹; in [5] (setting [17]), 60 s⁻¹; in data set [6] (setting [17]), 30 s⁻¹. The “KbKia/Ka, slope inhibition constant” value in [2] (product inhibition studies, pH 7.3, 30 °C) is recorded as 36 mM. Also, the “V1/EtKb, limiting value ka” value in data set [4] (EH form) was 3500 ± 900 M⁻¹ s⁻¹. Also, the “pK of pH dependence of V1/Et” value in data set [4] is listed as 7.3 ± 0.1.

Regarding `CCOC(=O)OC(=O)OCC` [diethyl pyrocarbonate], the Inactivation constant in data set [11] (setting [21]) came to 180 M⁻¹ s⁻¹; in [12] (setting [21]), 31 M⁻¹ s⁻¹; in data set [13] (setting [21]), 25 M⁻¹ s⁻¹; in data set [14] (120 μM diethyl pyrocarbonate, 33 mM sodium phosphate buffer) it was 11 M⁻¹ s⁻¹. In addition, the “Residual activity (% of initial)” value is recorded as 3.1 % of initial in data set [11] (setting [22]), 30 % of initial in data set [12] (setting [22]), 55 % of initial in [13] (setting [22]) and 64 % of initial in data set [14] (after 120 μM diethyl pyrocarbonate). Moreover, in [15] (enzyme-NADH complex), the “pK of the rate of inactivation by diethyl pyrocarbonate” value is reported as 8.7. For the same compound, the “pK value of the rate of inactivation by diethyl pyrocarbonate” value in data set [15] (free enzyme) is on record as 7.1.

`CCCCO` [1-butanol]: the “average isotope effect, butanol oxidation” value in data set [7] (5 mM 1-butanol or 1-butanol-d9, 2 mM NAD^+, pH range from 6.5 to 10.5) amounted to 4.2. Besides, the “Catalytic efficiency with butanol, fold lower than with ethanol” value in data set [2] and in data set [3] was “about 20 fold” throughout. The Km in [2] (1-butanol) is about 30 mM.

The Km is the substrate concentration at which the rate is half of its maximum.
